{"source": "patent EP0306300B1", "about": "“Pyrrolo(1,2-a)imidazole and imidazo(1,2-a)pyridine derivatives and their use as 5-lipoxygenase pathway inhibitors” (SMITHKLINE BEECHAM CORPORATION, priority 1987, dated 1989)", "key": {"[1]": {"test": "In vivo metabolism (statement only)"}, "[2]": {"tested_on": "Eicosanoid Production in Human Whole Blood", "test": "Inhibition of eicosanoid production following calcium ionophore stimulation in human whole blood", "assay_type": "cell-based", "settings": "human blood stimulated with calcium ionophore", "method": "The eicosanoids, which include the 5-lipoxygenase products LTB , transLTB₄, 20-hydroxyLTB₄, 5-HETE, and the 12-lipoxygenase product are extracted from the whole blood following A23187 calcium ionophore stimulation. The extracts are separated by reverse phase high pressure liquid chromatography and quantified by absorbance methods.\nVenous human blood is collected into polypropylene tubes containing 1% heparin. The blood is then aliquoted into 4.5 ml volumes and preincubated at 37°C for 10 minutes in polypropylene tubes (15 ml size). Compound or carrier (50 »L dimethylsulfoxide) is added 5 minutes prior to stimulation. Calcium ionophore (0.5ml) is added, and the blood incubated for 10 minutes. Prostaglancin B₂(1 nmole) is added, and the blood extracted as described below.\nThe samples are centrifuged at 1000xg for 15 minutes at 5°C. The plasma is collected, and one volume of methanol is added to the plasma. This suspension is then centrifuged at 1000xg for ten minutes at 5°C. The supernatant is collected and diluted with 1.5 volumes of chilled aqueous 1% formic acid: 1% triethylamine. This mixture is loaded onto a preconditioned J.T. Baker C18 SPE cartridge (Phillipsburg, NJ) at a flow rate of 1-2 ml/minute. (The cartridge is preconditioned according to manufacture's recommendations.) The absorbed sample is washed in the following order with three (3) ml each of (i) aqueous 1% formic acid: 1% triethylamine; (ii) petroleium ether; and (iii) 20% acetonitrile: 1% triethylamine.\nThe eicosanoids are eluted in 3ml of 70% acetonitrile: 1% triethylamine. The solvent is removed under vacuum. The sample is resuspended in 200»L of 50% methanol buffered with ammonium acetate.\nThe sample (175 »l) is loaded into a WATERS (Milbord, MA) RCM NOVA PAK C18 (100x8mm) column with the starting mobile phase of 90% A (A = 10% acetonitrile buffered with 30mM ammonium acetate to pH6.8) and 10% B (B = 90% acetonitrile buffered with 30mM ammonium acetate to pH6.8). The flow rate for the separation is 2.5ml/minute. At one minute the %B is increased to 27% in a step fashion. By 12 minutes the %B has increased in a concave hyperbolic function (curve 9) to 40% and increases in a linear manner to 60% by 22 minutes. Under these developing conditions, the retention times for the eicosanoids are: 20-hydroxyLTB₄, 4.6 minutes; transLTB₄, 10 minutes; LTB₄, 10.5 minutes; 12-HETE, 10.4 minutes; 5-HETE, 21 minutes. The HPLC system consisted of WATERS 510 pumps, 840 controller, WISP injector and 990 detector.\nThe eicosanoids in the samples are verified by their retention times and their UV absorbance spectra. The peaks are quantified with reference to the internal standard and their absorbance response at their maximum absorbance wavelength."}, "[3]": {"test": "Log D determination by high pressure liquid chromatography", "assay_type": "physicochemical", "settings": "hplc ods, mobile phase MeOH:H2O, pH 7.4, read-out: (Log D) (Lipophilicity)", "method": "The procedure used to determine the log D's listed on Table VI was as follows. A 20 »l sample was injected into a Shandon Hypersil ODS, 5» (100 mm x 4.6 mm ID) column and was eluted using a mobile phase of […] MeOH:H₂O (The aqueous portion was .01 M in KH₂PO₄ and adjusted to pH 7.4 with KOH after mixing the MeOH), at a flow rate of 2 ml per minute. Eluting peaks were detected by UV absorbance at […]. All samples were made up at 0.1 mg/ml. (Retentions were identical at 0.01 mg/ml.)\nThe data was analyzed by determining the regression line corresponding to the log k′ vs. literature log P of the reference standards.\nThe reference standards and their literature log P's included NaNO₂, 0.0; acetanalide, 1.16; acetophenone, 1.66; anisole, 2.08; chlorobenzene, 2.84; benzophenone, 3.18; anthracene, 4.45; and pentachlorobenzene, 5.12."}, "cynomolgus monkeys": {"tested_on": "cynomolgus monkeys", "test": "CNS activity / oral toxicity in cynomolgus monkeys", "settings": "cynomolgus monkey, in vivo", "method": "Additional monkeys tolerated repeated doses of 45 mg/kg or 30 mg/kg and one animal tolerated an escalating dose schedule of 30-90-120 mg/kg.\nThe two monkeys administered 400 mg/kg were repeatedly administered this dose for 7 consecutive days; each animal experienced emesis within 1 to 5 hours of dosing after the 1st, 3rd and 4th doses, whereas only the female experienced emesis after the 5th, 6th and 7th doses. A complete necropsy, serum clinical chemistry, hematology and histological examination was completed on both monkeys."}, "[4]": {"tested_on": "arachidonic acid-induced edema in mice", "test": "Arachidonic acid-induced mouse ear inflammation (ear swelling)", "assay_type": "in vivo, male Balb/c mice", "settings": "1 h, 50 mg/kg s.c. or i.p., ear thickness one hour after 2 mg arachidonic acid"}, "[5]": {"settings": "5-HETE, read-out: 5-LO, IC50 (uM) 5-HETE"}, "[6]": {"settings": "12-HETE, read-out: 5-LO, IC50 (uM) 12-HETE"}, "[7]": {"settings": "LTB4, read-out: 5-LO, IC50 (uM) LTB4"}, "[8]": {"settings": "tLTB4, read-out: 5-LO, IC50 (uM) tLTB4"}}, "note": "Where two headings read alike, the source gives them in different places."}
{"smiles": "C[S+]([O-])c1ccc(-c2nc3n(c2-c2ccncc2)CCC3)cc1", "note": "(stereo not drawn) [Compound 2, 2-(4-Methylsulfinylphenyl)-3-(4-pyridyl)-6,7-dihydro-[5H]-pyrrolo[1,2-a]imidazole]", "values": [{"measurement": "metabolism in vivo", "setting": "[1]", "value": "metabolized in vivo to compound D"}, {"measurement": "IC50", "setting": "[2]; [5]", "value": 80, "unit": "µM"}, {"measurement": "IC50", "setting": "[2]; [6]", "value": 80, "unit": "µM"}, {"measurement": "IC50", "setting": "[2]; [7]", "value": 80, "unit": "µM"}, {"measurement": "IC50", "setting": "[2]; [8]", "value": 80, "unit": "µM"}, {"measurement": "chromatographic logD", "setting": "[3]", "value": 0.85}]}
{"smiles": "CSc1ccc(-c2nc3n(c2-c2ccncc2)CCC3)cc1", "note": "[Compound 1, 2-(4-Methylthiophenyl)-3-(4-pyridyl)-6,7-dihydro-[5H]-pyrrolo[1,2-a]imidazole]", "values": [{"measurement": "IC50", "setting": "[2]; [5]", "value": 30, "unit": "µM"}, {"measurement": "IC50", "setting": "[2]; [6]", "value": 60, "unit": "µM"}, {"measurement": "IC50", "setting": "[2]; 20-OH-LTR4, read-out: 5-LO, IC50 (uM) 20-OH-LTR4", "value": 30, "unit": "µM"}, {"measurement": "IC50", "setting": "[2]; [7]", "value": 30, "unit": "µM"}, {"measurement": "IC50", "setting": "[2]; [8]", "value": 30, "unit": "µM"}, {"measurement": "Adverse CNS activity", "setting": "cynomolgus monkeys", "value": "+"}, {"measurement": "CNS toxicity / adverse CNS effects (comparative statement)", "setting": "cynomolgus monkeys", "value": "less CNS toxicity than prior art compound A"}, {"measurement": "chromatographic logD", "setting": "[3]", "value": 2.68}, {"measurement": "inhibition at 50 mg/kg", "setting": "[4]", "value": 62, "unit": "%"}]}
